The values below are quoted from earlier work in publication PMC4138512 (Journal of computer-aided molecular design, 2014).

The subject of this data set is BoNT/A.

Consider `O=C(/C=C/c1ccc(O)c(O)c1)O[C@H](C(=O)O)[C@H](OC(=O)/C=C/c1ccc(O)c(O)c1)C(=O)O` [D-chicoric acid], for which the “Inhibition in combination with 2,4-dichlorocinnamic hydroxamate” value is listed as “nonmutually exclusive inhibition” and the “Type of inhibition of BoNT/A” value is listed as “partial inhibition”.

`COC(=O)c1ccc(O)c2nc3c(C=O)c(O)cc(O)c3nc12` [lomofungin]: the “Inhibition in combination with 2,4-dichlorocinnamic hydroxamate and chicoric acid” value is given as “synergistic inhibition”; the “Type of inhibition of BoNT/A” value is “non-competitive”.
